In patent publication US20190210996A1, “NOVEL COMPOUNDS” (GLAXOSMITHKLINE INTELLECTUAL PROPERTY DEVELOPMENT LIMITED, priority 2016, published 2019):

Experiments:
LATS1 = target: T1, LATS1 (Homo sapiens, UniProt O95835); experiment: Expression proteomics in THP-1 cells: LATS1 protein level; assay type: cell-based; conditions: LATS1, THP-1 cells
T1 construct: endogenous in cells; host or cells: THP-1
T1 sequence (O95835 1-1130): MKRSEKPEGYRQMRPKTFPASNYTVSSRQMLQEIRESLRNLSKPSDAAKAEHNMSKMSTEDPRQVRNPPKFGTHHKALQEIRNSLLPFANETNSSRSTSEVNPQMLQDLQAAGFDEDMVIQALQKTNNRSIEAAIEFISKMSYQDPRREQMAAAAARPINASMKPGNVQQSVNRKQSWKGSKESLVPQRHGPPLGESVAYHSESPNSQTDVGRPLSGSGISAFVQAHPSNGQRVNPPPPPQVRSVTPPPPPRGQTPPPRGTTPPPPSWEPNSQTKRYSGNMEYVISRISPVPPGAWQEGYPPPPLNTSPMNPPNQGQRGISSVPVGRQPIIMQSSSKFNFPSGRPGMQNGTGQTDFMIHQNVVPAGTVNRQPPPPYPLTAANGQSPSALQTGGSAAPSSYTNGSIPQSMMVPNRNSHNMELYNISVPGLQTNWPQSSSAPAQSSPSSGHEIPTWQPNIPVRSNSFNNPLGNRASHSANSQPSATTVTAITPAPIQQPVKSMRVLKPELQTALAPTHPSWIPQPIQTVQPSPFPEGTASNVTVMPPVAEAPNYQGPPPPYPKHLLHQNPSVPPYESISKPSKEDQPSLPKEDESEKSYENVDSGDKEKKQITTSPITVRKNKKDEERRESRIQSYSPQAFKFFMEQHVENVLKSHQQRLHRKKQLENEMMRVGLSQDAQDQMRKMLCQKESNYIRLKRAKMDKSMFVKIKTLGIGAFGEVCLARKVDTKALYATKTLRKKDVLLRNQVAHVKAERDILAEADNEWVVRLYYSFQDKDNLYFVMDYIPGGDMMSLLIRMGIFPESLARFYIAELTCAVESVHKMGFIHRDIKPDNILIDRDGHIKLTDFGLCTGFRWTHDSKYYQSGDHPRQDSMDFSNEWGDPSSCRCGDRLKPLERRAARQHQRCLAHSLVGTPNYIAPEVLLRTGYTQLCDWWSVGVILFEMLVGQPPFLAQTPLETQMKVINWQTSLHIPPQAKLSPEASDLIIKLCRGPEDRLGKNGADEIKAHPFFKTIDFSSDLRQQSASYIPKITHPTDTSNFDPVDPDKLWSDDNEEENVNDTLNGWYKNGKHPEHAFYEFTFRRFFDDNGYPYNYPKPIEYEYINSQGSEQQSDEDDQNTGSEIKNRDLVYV
Experimental: (§1) THP-1 cells were seeded at a concentration of 3×10^6 cells in T175 flasks with 60 mL growth medium (RPMI1640+10% FBS). […] of a 10× compound solution prepared in growth medium (DMSO), CEREBLON_PROTAC) was added and the cells were treated for the indicated time points (6 or 24 h) at 37° C., 5% CO2. For harvesting the cells were collected into falcon tubes on ice, centrifuged and washed twice in cold PBS (Life technologies). After the last washing step the supernatant was removed and the pellets were snap-frozen in liquid N2 and stored at −80° C. and lysed in 2% SDS for 3 min at 95° C. in a thermomixer (Thermo Fisher Scientific), followed by digestion of DNA with Benzonase at 37° C. for 1.5 h. Lysate was cleared by centrifugation an protein concentration in supernatant was determined by BCA assay.
(§2) Leukemia 25, 89-100 (2011).
(§3) Samples were dried in vacuo and resuspended in 0.05% trifluoroacetic acid in water. Of the sample, 50% was injected into an Ultimate3000 nanoRLSC (Dionex, Sunnyvale, Calif.) coupled to a Q Exactive HF (Thermo Fisher Scientific). Peptides were trapped on a 5 mm×300 μm C18 column (Pepmap100, 5 μm, 300 Å, Thermo Fisher Scientific) in water with 0.05% TFA at 60° C. Separation was performed on custom 50 cm×[…] (ID) reversed-phase columns (Reprosil) at 55° C. Gradient elution was performed from 2% acetonitrile to 40% acetonitrile in 0.1% formic acid and 3.5% DMSO over 2 hours. Samples were online injected into Q-Exactive HF mass spectrometers operating with a data-dependent top 10 method. MS spectra were acquired by using 60.000 resolution and an ion target of 3×10^6. Higher energy collisional dissociation (HCD) scans were performed with 35% NCE at 30.000 resolution (at m/z 200), and the ion target settings was set to 2×10^5 so as to avoid coalescence (Werner, T. et al. Ion Coalescence of Neutron Encoded TMT 10-Plex Reporter Ions. Anal. Chem. 86, 3594-3601 (2014).
(§4) The first search was performed with 30 parts per million mass tolerance for peptide precursors and 30 mD (HCD) mass tolerance for fragment ions followed by a final search using recalibrated data with a 10 parts per million mass tolerance for peptide precursors and 20 mD (HCD) mass tolerance for fragment ions. Carbamidomethylation of cysteine residues and TMT modification of lysine residues were set as fixed modifications and methionine oxidation, and N-terminal acetylation of proteins and TMT modification of peptide N-termini were set as variable modifications. […]
(§5) Nat Biotech 29, 255-265 (2011). this measure is referred to as ion area Savitski, M. M. et al. Delayed Fragmentation and Optimized Isolation Width Settings for Improvement of Protein Identification and Accuracy of Isobaric Mass Tag Quantification on Orbitrap-Type Mass Spectrometers. […]

RPS6KA3 = target: T2, RPS6KA3 (Homo sapiens, UniProt P51812); experiment: Expression proteomics in THP-1 cells: RPS6KA3 protein level; assay type: cell-based; conditions: RPS6KA3, THP-1 cells
T2 construct: endogenous in cells; host or cells: THP-1
T2 sequence (P51812 whole entry): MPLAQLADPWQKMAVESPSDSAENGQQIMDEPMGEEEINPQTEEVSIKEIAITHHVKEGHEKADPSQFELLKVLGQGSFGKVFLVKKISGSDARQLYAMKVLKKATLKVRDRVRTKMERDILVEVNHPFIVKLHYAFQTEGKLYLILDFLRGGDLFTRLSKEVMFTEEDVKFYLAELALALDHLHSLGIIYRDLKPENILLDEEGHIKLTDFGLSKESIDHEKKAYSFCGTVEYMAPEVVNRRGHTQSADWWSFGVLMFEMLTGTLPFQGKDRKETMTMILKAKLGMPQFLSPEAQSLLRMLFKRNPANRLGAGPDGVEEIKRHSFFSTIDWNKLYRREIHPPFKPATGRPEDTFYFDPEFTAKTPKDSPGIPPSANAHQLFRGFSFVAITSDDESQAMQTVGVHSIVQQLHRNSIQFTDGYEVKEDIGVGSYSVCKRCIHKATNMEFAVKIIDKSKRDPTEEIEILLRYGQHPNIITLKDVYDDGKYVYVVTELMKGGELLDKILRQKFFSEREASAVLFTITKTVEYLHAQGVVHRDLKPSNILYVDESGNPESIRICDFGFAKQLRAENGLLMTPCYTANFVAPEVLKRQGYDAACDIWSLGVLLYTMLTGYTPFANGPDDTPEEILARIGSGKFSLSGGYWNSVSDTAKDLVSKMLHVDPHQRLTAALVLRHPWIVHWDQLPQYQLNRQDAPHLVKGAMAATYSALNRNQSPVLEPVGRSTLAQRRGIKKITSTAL
Experimental: as §1, §2, §3, §4, §5

log2 rel. fc. to vehicle control (LATS1; 24 h 0.1 μM, n = 1): −1.02
log2 rel. fc. to vehicle control (LATS1; 24 h 0.1 μM, n = 2): −1.01
log2 rel. fc. to vehicle control (LATS1; 24 h 1 μM, n = 1): −1.46
log2 rel. fc. to vehicle control (LATS1; 24 h 1 μM, n = 2): −1.55
log2 rel. fc. to vehicle control (RPS6KA3; 24 h 0.1 μM, n = 1): −0.74
log2 rel. fc. to vehicle control (RPS6KA3; 24 h 0.1 μM, n = 2): −0.72
log2 rel. fc. to vehicle control (RPS6KA3; 24 h 1 μM, n = 1): −1.12
log2 rel. fc. to vehicle control (RPS6KA3; 24 h 1 μM, n = 2): −1.11
SMILES: CNC(=O)c1ccccc1Nc1nc(Nc2ccc(N3CCN(CCOCCOCCOCCOCC(=O)Nc4cccc5c4CN(C4CCC(=O)NC4=O)C5=O)CC3)cc2)ncc1Cl.O=CO (centres unmarked) [CEREBLON_PROTAC, 14-(4-(4-((5-Chloro-4-((2-(methylcarbamoyl)phenyl)amino)pyrimidin-2-yl)amino)phenyl)piperazin-1-yl)-N-(2-(2,6-dioxopiperidin-3-yl)-1-oxoisoindolin-4-yl)-3,6,9,12-tetraoxatetradecan-1-amide formate]
